Assay results published in EPA's ToxRefDB 2.

What was measured:
rat [1] = conditions: Chronic toxicity; wistar; Oral; Feed; dose end: 104 week; group: systemic; systemic / pathology microscopic / eye / degeneration + systemic / pathology microscopic / prostate / fibrosis + systemic / pathology …
mouse = conditions: Subchronic oral toxicity in rodents, other, Feed, dose end: 90 day, group: systemic, systemic / clinical chemistry / cholesterol / cholesterol + systemic / clinical chemistry / triglycerides / triglycerides + systemic / organ…
rat [2] = conditions: Multigenerational reproductive toxicity study, wistar, Oral, Feed, dose end: 2 generation
rat [3] = conditions: Multigenerational reproductive toxicity study, wistar, Oral, Feed, dose end: 2 generation; remark: listed apart in the source
rat [4] = conditions: Peri- and post-natal toxicity study (Segment III), sprague dawley, Oral, Gavage/Intubation, dose end: 54 PND
rabbit = conditions: Prenatal developmental toxicity study; himalayan; Oral; Gavage/Intubation; dose end: 28 GD; group: maternal; systemic / in life observation / food consumption / food consumption + systemic / organ weight / adrenal gland / absolute + systemic / organ…
dog [5] = conditions: Subchronic oral toxicity in nonrodent, beagle, Feed, dose end: 6 month, group: systemic
dog [6] = conditions: Chronic toxicity, beagle, Oral, Feed, dose end: 52 week, group: systemic
rat [7] = conditions: Multigenerational reproductive toxicity study, sprague dawley, Oral, Feed, dose end: 2 generation
[8] = group: offspring, systemic / organ weight / adrenal gland / absolute + systemic / organ weight / liver / absolute
[9] = group: parental, systemic / organ weight / epididymis / absolute
[10] = group: reproductive, reproductive / reproductive performance / fertility / fertility
[11] = group: reproductive, reproductive / reproductive performance / fertility / fertility + reproductive / offspring survival early / birth index / live birth index
[12] = group: offspring, systemic / organ weight / liver / absolute
[13] = group: parental, systemic / organ weight / epididymis / absolute + systemic / organ weight / adrenal gland / absolute
[14] = group: developmental, developmental / developmental landmark / preputial separation / preputial separation
[15] = group: parental, systemic / organ weight / [other] / absolute + systemic / organ weight / adrenal gland / absolute + systemic / organ weight / prostate / …
[16] = group: parental, systemic / pathology gross / kidney / dilatation
[17] = systemic / organ weight / adrenal gland / absolute + systemic / organ weight / adrenal gland / relative to body weight + systemic / clinical…
[18] = systemic / hematology / reticulocyte / reticulocyte + systemic / organ weight / adrenal gland / absolute + systemic / organ weight / adrenal…
[19] = group: offspring, developmental / developmental landmark / nipple development / nipple development + developmental / developmental landmark / preputial …
[20] = group: parental, systemic / organ weight / epididymis / absolute + systemic / organ weight / epididymis / relative to body weight + systemic / organ weight…

Question: What does the source list for `C=CC1(C)OC(=O)N(c2cc(Cl)cc(Cl)c2)C1=O` (stereo not given) [Vinclozolin]?
Answer: LEL (rat [1]): 7 mg/kg/day; LOAEL (rat [1]): 7 mg/kg/day; NEL (rat [1]): < 7 mg/kg/day; NOAEL (rat [1]): < 7 mg/kg/day; LEL (mouse): 230 mg/kg/day; LOAEL (mouse): 230 mg/kg/day; NEL (mouse): 20 mg/kg/day; NOAEL (mouse): 20 mg/kg/day; LEL (rat [2]; [8]): 30 mg/kg/day; LOAEL (rat [2]; [8]): 30 mg/kg/day; NEL (rat [2]; [8]): 4.9 mg/kg/day; NOAEL (rat [2]; [8]): 4.9 mg/kg/day; LEL (rat [2]; [9]): 4.9 mg/kg/day; LOAEL (rat [2]; [9]): 4.9 mg/kg/day; NEL (rat [2]; [9]): < 4.9 mg/kg/day; NOAEL (rat [2]; [9]): < 4.9 mg/kg/day; NEL (rat [2]; [10]): 101 mg/kg/day; LEL (rat [2]; [11]): 290 mg/kg/day; LOAEL (rat [2]; [11]): > 290 mg/kg/day; NOAEL (rat [2]; [11]): ≥ 290 mg/kg/day; LEL (rat [3]; [12]): 4.1 mg/kg/day; LOAEL (rat [3]; [12]): > 4.1 mg/kg/day; NEL (rat [3]; [12]): 2 mg/kg/day; NOAEL (rat [3]; [12]): ≥ 4.1 mg/kg/day; LEL (rat [3]; [13]): 2 mg/kg/day; LOAEL (rat [3]; [13]): > 4.1 mg/kg/day; NEL (rat [3]; [13]): < 2 mg/kg/day; NOAEL (rat [3]; [13]): ≥ 4.1 mg/kg/day; LEL (rat [4]; [14]): 10 mg/kg/day; LOAEL (rat [4]; [14]): > 100 mg/kg/day; NEL (rat [4]; [14]): < 10 mg/kg/day; NOAEL (rat [4]; [14]): ≥ 100 mg/kg/day; LOAEL (rat [4]; [15]): > 100 mg/kg/day; NOAEL (rat [4]; [15]): ≥ 100 mg/kg/day; LEL (rat [4]; [16]): 10 mg/kg/day; NEL (rat [4]; [16]): < 10 mg/kg/day; LEL (rabbit): 200 mg/kg/day; LOAEL (rabbit): 200 mg/kg/day; NEL (rabbit): 50 mg/kg/day; NOAEL (rabbit): 50 mg/kg/day; LOAEL (dog [5]; systemic / organ weight / adrenal gland / absolute + systemic / organ weight / adrenal gland / relative to body weight): 7.5 mg/kg/day; NEL (dog [5]; [17]): 2.5 mg/kg/day; NOAEL (dog [5]; [17]): 2.5 mg/kg/day; LEL (dog [5]; systemic / organ weight / adrenal gland / absolute + systemic / organ weight / adrenal gland / relative to body weight + systemic / organ …): 7.5 mg/kg/day; LOAEL (dog [6]; [18]): 47 mg/kg/day; NEL (dog [6]; [18]): 2.4 mg/kg/day; NOAEL (dog [6]; [18]): 4.8 mg/kg/day; LEL (dog [6]; [17]): 4.8 mg/kg/day; LEL (rat [7]; [19]): 14.8 mg/kg/day; LOAEL (rat [7]; [19]): 14.8 mg/kg/day; NEL (rat [7]; [19]): 3 mg/kg/day; NOAEL (rat [7]; [19]): 3 mg/kg/day; LOAEL (rat [7]; [20]): 14.8 mg/kg/day; NOAEL (rat [7]; [20]): 3 mg/kg/day; LEL (rat [7]; group: parental, systemic / pathology microscopic / adrenal gland / [other] + systemic / pathology microscopic / liver / hypertrophy): 11.5 mg/kg/day; NEL (rat [7]; group: parental, systemic / pathology microscopic / adrenal gland / [other] + systemic / pathology microscopic / liver / hypertrophy + systemic / clinical …): 2.34 mg/kg/day; LEL (rat [7]; [10]): 74.7 mg/kg/day; LOAEL (rat [7]; [10]): > 74.7 mg/kg/day; NEL (rat [7]; [10]): 14.8 mg/kg/day; NOAEL (rat [7]; [10]): ≥ 74.7 mg/kg/day
